According to publication PMC11969544, “Structure-Based Mechanism and Specificity of Human Galactosyltransferase β3GalT5” (Journal of the American Chemical Society, 2025):

Assays:
[1] = biological target: T1, human β3GalT5 (β1,3-galactosyltransferase 5) (Homo sapiens, UniProt Q9Y2C3); assay: galactosyltransfer kinetics (details in supplement); format: biochemical; conditions: acceptor; donor UDP-Gal; crystal structure of the complex also solved
T1 construct: gene B3GALT5; recombinant luminal catalytic domain Phe31-Pro308 (crystallised construct), transmembrane domain removed; N-glycosylated
T1 sequence (Q9Y2C3 31-308): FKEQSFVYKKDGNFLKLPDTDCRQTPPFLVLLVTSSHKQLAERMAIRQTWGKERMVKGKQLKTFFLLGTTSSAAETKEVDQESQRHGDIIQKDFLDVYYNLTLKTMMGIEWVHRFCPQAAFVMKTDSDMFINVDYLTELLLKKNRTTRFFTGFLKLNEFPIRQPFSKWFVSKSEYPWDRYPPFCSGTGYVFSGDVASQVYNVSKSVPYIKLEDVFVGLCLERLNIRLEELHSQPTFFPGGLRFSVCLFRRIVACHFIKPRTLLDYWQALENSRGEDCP

[2] = biological target: T1, human β3GalT5 (β1,3-galactosyltransferase 5); assay: X-ray crystallography; format: binding; conditions: Mn2+; donor site; with Gb5 glycan bound
[3] = biological target: T1, human β3GalT5 (β1,3-galactosyltransferase 5); assay: X-ray crystallography (cocrystallisation); format: binding; conditions: Mn2+; donor site; inert donor analogue
[4] = substrate: CC(=O)N[C@H]1[C@H](O[C@H]2[C@@H](O)[C@@H](CO)O[C@H](O[C@H](C)[C@H](N)C(=O)O)[C@@H]2NC(C)=O)O[C@H](CO)[C@@H](O)[C@@H]1O; assay: galactosyltransfer kinetics (details in supplement); format: biochemical, Homo sapiens; conditions: acceptor; donor UDP-Gal; crystal structure of the complex also solved
[5] = substrate: COC1O[C@H](CO)[C@H](O)[C@H](O[C@@H]2O[C@H](CO)[C@@H](O)[C@H](O)[C@H]2NC(C)=O)[C@H]1O; assay: as above; format: biochemical, Homo sapiens; conditions: acceptor; donor UDP-Gal; crystal structure of the complex also solved

## CC(=O)N[C@H]1[C@H](O[C@H]2[C@@H](O)[C@@H](CO)O[C@H](O[C@@H]3[C@H](O)[C@@H](O)[C@H](O[C@H]4[C@H](O)[C@@H](O)C(O)O[C@@H]4CO)O[C@@H]3CO)[C@@H]2O)O[C@H](CO)[C@H](O)[C@@H]1O (some centres unmarked) [Gb4 glycan]
[1]
  Km: 2000 µM

## O=c1ccn([C@@H]2O[C@H](COP(=O)(O)OP(=O)(O)O)[C@@H](O)[C@H]2O)c(=O)[nH]1 [UDP]
[2]
  X-ray crystallography: β3GalT5 cocrystallized with UDP and soaked with the product Gb5 (SSEA3) glycan

## O=c1ccn([C@@H]2O[C@H](COP(=O)(O)OP(=O)(O)O[C@H]3O[C@H](CO)[C@H](O)[C@H](O)[C@H]3F)[C@@H](O)[C@H]2O)c(=O)[nH]1 [UDP-2FGal, UDP-2-deoxy-2-fluoro-α-D-galactopyranose]
[3]
  X-ray crystallography (cocrystallisation): employed an inert analog of the sugar nucleotide donor, UDP-2-deoxy-2-fluoro-α-D-galactopyranose (UDP-2FGal) for cocrystallization with β3GalT5

B1: human β3GalT5 (β1,3-galactosyltransferase 5) (Homo sapiens) (protein)
chain: FKEQSFVYKKDGNFLKLPDTDCRQTPPFLVLLVTSSHKQLAERMAIRQTWGKERMVKGKQLKTFFLLGTTSSAAETKEVDQESQRHGDIIQKDFLDVYYNLTLKTMMGIEWVHRFCPQAAFVMKTDSDMFINVDYLTELLLKKNRTTRFFTGFLKLNEFPIRQPFSKWFVSKSEYPWDRYPPFCSGTGYVFSGDVASQVYNVSKSVPYIKLEDVFVGLCLERLNIRLEELHSQPTFFPGGLRFSVCLFRRIVACHFIKPRTLLDYWQALENSRGEDCP
notes: recombinant luminal catalytic domain Phe31-Pro308 (crystallised construct), transmembrane domain removed; N-glycosylated
[4]
  Km: 750 µM
[5]
  Km: 500 µM
